According to publication PMC10331583, “Control of fibrosis with enhanced safety via asymmetric inhibition of prolyl‐tRNA synthetase 1” (EMBO Molecular Medicine, 2023):
“And” between values parts separate entries of the source, which are not always exact repeats. Equal values may be shown once.

Key:
[1] = test system: LX2 cells; experiment: Determination of collagen level using 3D culture (hydroxyproline); format: cell-based; details: Homo sapiens, LX-2, read-out: IC50 for collagen level
Experimental: To screen HF derivatives, LX2 cells were resuspended with growth medium containing 20% Matrigel (BD Bioscience, 354234) and then seeded at 1 × 10^4 cells/well on a Lipidure‐coated U bottom 96‐well plate (NOF, LCU96). After 48 h, the cells were treated with TGF‐β1 (Sigma‐Aldrich, T7039) for 24 h to mimic fibrotic conditions and then additionally incubated in the presence of various concentrations of test compounds for 48 h. To determine the level of collagen, hydroxyproline levels were measured following the manufacturer's instructions (BioVision, K555‐100). Briefly, after the cells were incubated with HCl for 3 h at 120°C, the soluble supernatant was prepared using activated charcoal (Sigma‐Aldrich, 161551). The samples were dried for 3 h at 60°C and then, incubated with chloramine T mixture for 10 min and Ehrlich's reagent for 90 min at 60°C. The level of hydroxyproline was determined by measuring the absorbance at 540 nm.

[2] = Cytotoxicity assay in cells stably expressing EV; details: human; for activity at 72 h, 100 µM: 100000 nM; for activity at 72 h, 300 µM: 300000 nM
[3] = test system: WI‐26 VA4 cells stably expressing EV (empty vector); experiment: Cytotoxicity assay in cells stably expressing EV; details: WI-26 VA4 EV
[4] = Cytotoxicity, % of control (single replicates, Experiment #1-#4), WI-26 VA4 EV
[5] = Cytotoxicity, % of control, average, WI-26 VA4 EV

## O[C@H]1CCCN[C@@H]1CCCn1cnc2c(Cl)c(Cl)ccc21 [DWN12088]
[1]
  IC50: 0.0431 µM
[2]
  CC50 at 72 h: 24 µM
  IC50 at 72 h: 24 µM
[2]; [4]
  activity at 72 h, 100 µM: 29.1%
  activity at 72 h, 300 µM: 2.25%
[2]; Cytotoxicity, % of control, average, WI-26 VA4 EV, 10 nM
  activity at 72 h, 0.01 µM: 131%
[2]; Cytotoxicity, % of control, average, WI-26 VA4 EV, 30 nM
  activity at 72 h, 0.03 µM: 120%
[2]; Cytotoxicity, % of control, average, WI-26 VA4 EV, 100 nM
  activity at 72 h, 0.1 µM: 127%
[2]; Cytotoxicity, % of control, average, WI-26 VA4 EV, 300 nM
  activity at 72 h, 0.3 µM: 125%
[2]; Cytotoxicity, % of control, average, WI-26 VA4 EV, 1000 nM
  activity at 72 h, 1 µM: 118%
[2]; Cytotoxicity, % of control, average, WI-26 VA4 EV, 3000 nM
  activity at 72 h, 3 µM: 105%
[2]; Cytotoxicity, % of control, average, WI-26 VA4 EV, 10000 nM
  activity at 72 h, 10 µM: 108%
[2]; Cytotoxicity, % of control, average, WI-26 VA4 EV, 30000 nM
  activity at 72 h, 30 µM: 42.2%
[2]; [5]
  activity at 72 h, 100 µM: 25.1%
  activity at 72 h, 300 µM: 1.78%
[2]; Cytotoxicity, % of control, average, WI-26 VA4 EV, 1000000 nM
  activity at 72 h, 1000 µM: -0.23%
[3]; 10 nM, 0.01 µM
  Cytotoxicity, % of control (single replicates, Experiment #1-#4): 181.59 % of control and 174.53 % of control and 155.63 % of control and 131.53 % of control and 90.90 % of control and 98.37 % of control and 100.27 % of control and 114.43 % of control
[3]; 30 nM, 0.03 µM
  Cytotoxicity, % of control (single replicates, Experiment #1-#4): 144.67 % of control and 129.26 % of control and 139.92 % of control and 145.06 % of control and 96.12 % of control and 96.09 % of control and 105.17 % of control and 102.77 % of control
[3]; 100 nM, 0.1 µM
  Cytotoxicity, % of control (single replicates, Experiment #1-#4): 147.51 % of control and 118.70 % of control and 139.92 % of control and 137.75 % of control and 115.49 % of control and 112.19 % of control and 121.53 % of control and 122.89 % of control
[3]; 300 nM, 0.3 µM
  Cytotoxicity, % of control (single replicates, Experiment #1-#4): 145.14 % of control and 129.72 % of control and 157.05 % of control and 115.90 % of control and 103.62 % of control and 109.27 % of control and 123.14 % of control and 114.81 % of control
[3]; 1000 nM, 1 µM
  Cytotoxicity, % of control (single replicates, Experiment #1-#4): 147.27 % of control and 102.27 % of control and 132.28 % of control and 145.77 % of control and 98.60 % of control and 107.79 % of control and 107.19 % of control and 105.61 % of control
[3]; 3000 nM, 3 µM
  Cytotoxicity, % of control (single replicates, Experiment #1-#4): 108.37 % of control and 94.06 % of control and 109.81 % of control and 125.38 % of control and 98.33 % of control and 90.23 % of control and 106.43 % of control and 103.83 % of control
[3]; 10000 nM, 10 µM
  Cytotoxicity, % of control (single replicates, Experiment #1-#4): 112.55 % of control and 107.77 % of control and 118.32 % of control and 138.37 % of control and 93.86 % of control and 92.69 % of control and 99.78 % of control and 101.69 % of control
[3]; 30000 nM, 30 µM
  Cytotoxicity, % of control (single replicates, Experiment #1-#4): 48.06 % of control and 41.00 % of control and 64.15 % of control and 50.51 % of control and 27.36 % of control and 27.48 % of control and 37.20 % of control and 42.21 % of control
[3]; 100000 nM, 100 µM
  Cytotoxicity, % of control (single replicates, Experiment #1-#4): 28.49 % of control and 29.03 % of control and 30.62 % of control and 22.10 % of control and 18.35 % of control and 21.38 % of control and 22.01 % of control
[3]; 300000 nM, 300 µM
  Cytotoxicity, % of control (single replicates, Experiment #1-#4): 1.70 % of control and 1.82 % of control and 1.26 % of control and 1.75 % of control and 1.60 % of control and 1.89 % of control and 2.00 % of control
[3]; 1000000 nM, 1000 µM
  Cytotoxicity, % of control (single replicates, Experiment #1-#4): 0.17 % of control and -0.17 % of control and 0.30 % of control and -0.30 % of control (2×) and -0.44 % of control (2×) and -0.63 % of control
[3]; log(inhibitor) vs. response, variable slope (four parameters)
  Cytotoxicity HillSlope (best-fit value): -1.361
[3]; log(inhibitor) vs. response, variable slope (four parameters), concentration in nM
  Cytotoxicity LogIC50 (best-fit value): 4.38
